Data as given in patent publication US20050113283A1, “Methods of treating conditions associated with an EDG-4 receptor” (priority 2002, published 2005).
pEC50: −log10 of the molar value.

How the values were obtained:
[1] = test system: CaOV3 human ovarian cancer cells; assay: Calcium response in CaOV3 cells; type: cell-based; conditions: CaOV3, naturally express human Edg-4, FIG. 16
Edg-5 = target: T1, Edg-5 (Homo sapiens, UniProt O95136); assay: Calcium mobilization assay (FLIPR), HTC cells expressing Edg 5; type: cell-based; conditions: agonist
T1 construct: expressed in transfected cells; host or cells: HTC rat hepatoma cells (from the earlier reading)

Edg-2 = target: T2, Edg-2 (Homo sapiens, UniProt Q92633); assay: Calcium mobilization assay (FLIPR), HTC cells expressing Edg 2; type: cell-based; conditions: agonist
T2 construct: expressed in transfected cells; host or cells: HTC rat hepatoma cells (from the earlier reading)

Edg-3 = target: T3, Edg-3 (Homo sapiens, UniProt Q99500); assay: Calcium mobilization assay (FLIPR), HTC cells expressing Edg 3; type: cell-based; conditions: agonist
T3 construct: expressed in transfected cells; host or cells: HTC rat hepatoma cells (from the earlier reading)

Edg-6 = target: T4, Edg-6 (Homo sapiens, UniProt O95977); assay: Calcium mobilization assay (FLIPR), HTC cells expressing Edg 6; type: cell-based; conditions: agonist
T4 construct: expressed in transfected cells; host or cells: HTC rat hepatoma cells (from the earlier reading)
T4 sequence (O95977 1-384): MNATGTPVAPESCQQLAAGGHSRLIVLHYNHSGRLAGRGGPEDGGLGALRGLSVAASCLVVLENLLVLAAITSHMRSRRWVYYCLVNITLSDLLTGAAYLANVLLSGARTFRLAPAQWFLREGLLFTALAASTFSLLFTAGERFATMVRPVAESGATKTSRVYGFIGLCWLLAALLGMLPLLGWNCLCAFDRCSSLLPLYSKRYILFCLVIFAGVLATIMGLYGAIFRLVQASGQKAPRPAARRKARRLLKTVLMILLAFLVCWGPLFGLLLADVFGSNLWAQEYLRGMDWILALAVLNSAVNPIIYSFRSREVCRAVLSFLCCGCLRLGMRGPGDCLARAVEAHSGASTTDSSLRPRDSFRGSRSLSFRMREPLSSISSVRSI

Edg-8 = target: T5, Edg-8 (Homo sapiens, UniProt Q9H228); assay: Calcium mobilization assay (FLIPR), HTC cells expressing Edg 8; type: cell-based; conditions: agonist
T5 construct: expressed in transfected cells; host or cells: HTC rat hepatoma cells (from the earlier reading)

[2] = Calcium mobilization assay, Null; type: cell-based; conditions: agonist
Source text: (§1) LPA receptors such as Edg-4, couple to calcium effector pathways, and result in increases in intracellular calcium following receptor activation (An et al., Molecular Pharmacology, 54:881-888, 1998, incorporated herein by reference). This biological response lends itself to a very efficient, high-throughput screen using a Fluorescence Imaging Plate Reader (FLIPR; Molecular Devices, Sunnyvale, Calif.). The FLIPR system is a real-time, cell-based assay system with continuous fluorescence detection using a cooled CCD camera. The FLIPR system was used to developing an Edg-4 receptor screen. Rat hepatoma cells stably expressing Edg-4 receptor were plated on 384-well plates and loaded with a calcium dye loading kit (Molecular Devices, Sunnyvale, Calif.) for 1 hour at room temperature. Cells were then placed on the FLIPR^354 (Molecular Devices, Sunnyvale, Calif.) and excited by an argon laser at 488 nm. The data for the entire 384-well plate was updated every second. An integrated robotic pipettor allowed for simultaneous compound addition into each individual well in the plate.

human Edg-4 receptor [3] = target: T6, human Edg-4 receptor (Homo sapiens, UniProt Q9HBW0); assay: Calcium mobilization assay (FLIPR), HTC rat hepatoma cells transfected with human Edg-4; type: cell-based
T6 construct: IC50 Edg-4; other: agonist, calcium mobilization; potency relative to compound 101; calcium response (agonist)
Source text: as §1

human Edg-4 receptor [4] = assay: as above; type: cell-based; conditions: agonists; Edg-4 relative to other Edg receptors
Source text: as §1

Edg-1 = target: T7, Edg-1 (Homo sapiens, UniProt P21453); assay: Calcium mobilization assay (FLIPR), HTC cells expressing Edg 1; type: cell-based; conditions: agonist
T7 construct: expressed in transfected cells; host or cells: HTC rat hepatoma cells (from the earlier reading)

Edg-7 = target: T8, Edg-7 (Homo sapiens, UniProt Q9UBY5); assay: Calcium mobilization assay (FLIPR), HTC cells expressing Edg 7; type: cell-based
T8 construct: expressed in transfected cells; host or cells: HTC rat hepatoma cells (from the earlier reading)
T8 sequence (Q9UBY5 1-353): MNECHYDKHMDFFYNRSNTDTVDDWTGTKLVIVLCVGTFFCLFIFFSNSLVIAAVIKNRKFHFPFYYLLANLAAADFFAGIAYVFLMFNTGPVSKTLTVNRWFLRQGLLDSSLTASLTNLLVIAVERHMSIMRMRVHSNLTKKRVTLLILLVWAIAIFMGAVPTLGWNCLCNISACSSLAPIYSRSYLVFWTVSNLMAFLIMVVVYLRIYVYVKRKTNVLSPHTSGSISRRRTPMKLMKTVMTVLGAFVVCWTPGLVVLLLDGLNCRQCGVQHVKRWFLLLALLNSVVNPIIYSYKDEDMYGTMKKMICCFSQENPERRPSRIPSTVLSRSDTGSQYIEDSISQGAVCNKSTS

[5] = test system: human ovarian tumor growth within the chamber; assay: In vivo Z-chamber study; design: species or system rat; conditions: rats, 5 mg/kg every other day, harvested day 16, FIG. 14
Experimental: The Z-chamber assay is a fibrin-based in vivo assay, wherein fibrin and thrombin are added through a port in a two-sided chamber sealed by a nylon mesh. The chamber is implanted in the subcutaneous space of an animal and harvested for evaluation. Fibrin matrices are formed in normal wound healing and are used by tumors to sustain growth, thus Z-chambers are designed to study, for example, angiogenesis, wound healing, and tumor growth. In addition, their design is useful, for example, in studies of localized gene expression, stem cell, adenoviral, and tissue generation.
The efficacy of 101 in an in vivo tumor model was examined by Z-chamber® (SRI, Menlo Park, Calif.) study. Each tumor chamber consisted of 150-160 μl cell suspension made by suspending 190 million cells in 20 ml fibrin (4 mg/ml). Following the introduction of cell suspension, 2 units of thrombin was added into each chamber and the mixture was allowed to gel for 5-7 minutes before implantation.
Rats were anesthetized with Nembutal (35 mg/kg). The skin of rats was surgically prepared with 70% alcohol. […]
101 was dissolved in a 1 to 1 cremophor:ethanol solution and diluted 4 times with 5% dextrose on water. […] The tumor thickness was measured and compared to a negative control, i.e., chambers with no treatment, and the positive treatment. […]

T6 sequence (Q9HBW0 1-340 limits assumed): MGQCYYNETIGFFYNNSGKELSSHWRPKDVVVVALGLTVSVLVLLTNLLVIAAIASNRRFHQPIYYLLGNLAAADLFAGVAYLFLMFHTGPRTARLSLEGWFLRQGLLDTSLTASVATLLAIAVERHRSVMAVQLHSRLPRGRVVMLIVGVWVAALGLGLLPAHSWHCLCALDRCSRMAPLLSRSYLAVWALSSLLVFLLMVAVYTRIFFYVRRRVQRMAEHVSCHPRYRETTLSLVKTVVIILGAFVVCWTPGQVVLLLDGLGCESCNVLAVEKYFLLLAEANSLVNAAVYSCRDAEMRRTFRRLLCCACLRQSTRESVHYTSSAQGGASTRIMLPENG
T2 sequence (Q92633 whole entry): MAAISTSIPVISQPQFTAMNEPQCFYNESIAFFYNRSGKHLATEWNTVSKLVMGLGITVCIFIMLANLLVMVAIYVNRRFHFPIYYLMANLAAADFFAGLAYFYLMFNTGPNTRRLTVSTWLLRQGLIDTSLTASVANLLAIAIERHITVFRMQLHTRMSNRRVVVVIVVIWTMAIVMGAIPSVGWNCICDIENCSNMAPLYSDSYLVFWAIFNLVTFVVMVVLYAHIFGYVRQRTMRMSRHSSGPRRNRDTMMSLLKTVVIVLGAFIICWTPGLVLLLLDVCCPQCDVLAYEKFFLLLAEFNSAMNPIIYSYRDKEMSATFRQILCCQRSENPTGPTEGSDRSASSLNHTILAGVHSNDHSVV
T7 sequence (P21453 whole entry): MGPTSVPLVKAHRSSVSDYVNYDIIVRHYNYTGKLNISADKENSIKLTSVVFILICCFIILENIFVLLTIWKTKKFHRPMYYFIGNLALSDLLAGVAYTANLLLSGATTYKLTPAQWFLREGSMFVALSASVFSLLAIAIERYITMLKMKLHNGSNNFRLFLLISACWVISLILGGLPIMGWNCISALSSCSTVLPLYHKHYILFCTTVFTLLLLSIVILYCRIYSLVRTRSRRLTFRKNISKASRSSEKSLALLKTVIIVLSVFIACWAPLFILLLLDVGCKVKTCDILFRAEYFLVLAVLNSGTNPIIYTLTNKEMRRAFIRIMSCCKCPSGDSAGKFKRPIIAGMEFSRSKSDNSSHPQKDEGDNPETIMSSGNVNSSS
T5 sequence (Q9H228 whole entry): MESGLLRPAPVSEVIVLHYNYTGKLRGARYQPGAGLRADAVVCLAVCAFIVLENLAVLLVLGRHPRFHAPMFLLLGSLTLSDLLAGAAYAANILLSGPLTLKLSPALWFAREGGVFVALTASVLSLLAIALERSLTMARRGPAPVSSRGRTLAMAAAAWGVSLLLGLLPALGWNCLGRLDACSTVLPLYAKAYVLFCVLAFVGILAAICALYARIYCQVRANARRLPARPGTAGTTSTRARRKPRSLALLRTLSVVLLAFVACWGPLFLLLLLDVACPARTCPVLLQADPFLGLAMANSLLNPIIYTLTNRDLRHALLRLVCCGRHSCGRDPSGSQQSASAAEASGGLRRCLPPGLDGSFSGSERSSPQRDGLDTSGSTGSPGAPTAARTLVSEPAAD
T3 sequence (Q99500 whole entry): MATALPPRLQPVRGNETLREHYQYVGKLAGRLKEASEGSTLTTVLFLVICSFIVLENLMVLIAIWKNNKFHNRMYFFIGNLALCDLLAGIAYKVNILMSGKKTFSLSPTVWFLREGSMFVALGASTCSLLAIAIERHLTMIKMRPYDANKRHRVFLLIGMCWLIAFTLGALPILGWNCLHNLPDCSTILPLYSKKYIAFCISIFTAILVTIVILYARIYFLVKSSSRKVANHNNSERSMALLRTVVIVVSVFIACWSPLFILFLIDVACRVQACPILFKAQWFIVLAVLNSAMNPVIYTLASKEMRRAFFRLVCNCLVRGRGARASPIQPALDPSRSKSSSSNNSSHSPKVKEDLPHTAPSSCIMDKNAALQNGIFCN
T1 sequence (O95136 whole entry): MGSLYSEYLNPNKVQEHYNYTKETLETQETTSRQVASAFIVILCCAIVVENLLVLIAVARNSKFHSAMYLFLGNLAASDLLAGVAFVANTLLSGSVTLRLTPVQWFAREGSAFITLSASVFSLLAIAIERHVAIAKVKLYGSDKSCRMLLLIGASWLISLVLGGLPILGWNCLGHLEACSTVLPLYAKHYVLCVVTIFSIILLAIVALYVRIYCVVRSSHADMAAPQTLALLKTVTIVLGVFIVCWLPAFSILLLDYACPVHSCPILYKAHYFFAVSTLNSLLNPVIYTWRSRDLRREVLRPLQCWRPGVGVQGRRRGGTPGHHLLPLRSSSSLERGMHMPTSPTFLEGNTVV

pEC50 (Edg-5) | pEC50 (Edg-2) | pEC50 (Edg-3) | pEC50 (Edg-6) | pEC50 (Edg-8) | pEC50 [2] | calcium response (agonist) (human Edg-4 receptor [3]; HTC cells transfected with human Edg-4, FIG. 15) | pEC50 (human Edg-4 receptor [3]; agonist, calcium mobilization) | Fold Selectivity for Edg-4 (EC50) (human Edg-4 receptor [4]) | pEC50 (Edg-1) | agonist activity at the Edg-7 receptor (Edg-7) | pEC50 (Edg-7; agonist, calcium mobilization) | Structure (SMILES) | calcium response elicited by 125, inhibited by antagonist 103 [1] | inhibition of tumor growth (positive control) [5]
< 4.60 | < 4.60 | < 4.60 | < 4.60 | < 4.60 | < 4.60 | elicits a calcium response | 5.28 | >4.8 | < 4.60 | acts as an agonist | 5.60 | COc1cc2c(cc1OC)C(c1c(Cl)cccc1Cl)NC(=O)C2 (centres unmarked) [Compound 125, 1-(2,6-dichlorophenyl)-6,7-dimethoxy-1,4-dihydro-2H-isoguinolin-3-one] | specificity is also observed | 
 |  |  |  |  |  |  |  |  |  |  |  | CC(=O)O[C@H]1C(=O)[C@@]2(C)[C@H]([C@H](OC(=O)c3ccccc3)[C@]3(O)C[C@H](OC(=O)[C@H](O)[C@@H](NC(=O)c4ccccc4)c4ccccc4)C(C)=C1C3(C)C)[C@]1(OC(C)=O)CO[C@@H]1C[C@@H]2O [Taxol] |  | inhibition of tumor growth
